From PubChem BioAssay AID1963985 (Molecular Pharmacology Branch, DTP, NCI, 2024)

Test system: 252836-082-R-J2-PDC tumor spheroids, viability
Assay: Anticancer human tumor 252836-082-R-J2-PDC patient-derived head and neck squamous cell carcinoma cell line growth inhibition [PI3K]
Details: spheroids with HUVEC and MSC; for IC50: curve of first compound; for viability, T/C: stronger effect = lower value
Outline: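 Multi-cell spheroids combine tumor cells with HUVEC and human MSCs, treated with targeted agents alone or with inavolisib, alpelisib, duvelisib or copanlisib. Concentrations fall in half-log steps from at or near clinical Cmax, or from 10 microM where Cmax is unknown; viability read-out.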
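Note: spheroids exposed to agents for seven days before readout.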
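Throughout, for viability, T/C: percent of vehicle DMSO control viability so 100% = untreated growth.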

**Q.** For `CNC(=O)c1ccc(N2C(=S)N(c3ccc(C#N)c(C(F)(F)F)c3)C(=O)C2(C)C)cc1F` + Cc1nc(NC(=O)N2CCCC2C(N)=O)sc1-c1ccnc(C(C)(C)C(F)(F)F)c1, which IC50 (second compound 0.0316 µM) is on record?
**A.** > 10000 nM

**Q.** And the IC50 (second compound 0.1 µM)?
**A.** > 10000 nM

**Q.** What about the IC50 (second compound 0.316 µM) of the same molecule?
**A.** > 10000 nM

**Q.** And the IC50 (second compound 1 µM)?
**A.** > 10000 nM

**Q.** And the IC50 (second compound 3.16 µM)?
**A.** > 10000 nM

**Q.** And the IC50 (second compound 10 µM)?
**A.** < 31.6 nM

**Q.** And the viability, T/C (second compound 0.0316 µM, first compound 0.0316 µM)?
**A.** 99.5%

**Q.** What about the viability, T/C (second compound 0.0316 µM, first compound 0.1 µM) of the same molecule?
**A.** 93.2%

**Q.** What about the viability, T/C (second compound 0.0316 µM, first compound 0.316 µM) of the same molecule?
**A.** 103%

**Q.** And the viability, T/C (second compound 0.0316 µM, first compound 1 µM)?
**A.** 91%

**Q.** What about the viability, T/C (second compound 0.0316 µM, first compound 3.16 µM) of the same molecule?
**A.** 94.7%

**Q.** What about the viability, T/C (second compound 0.0316 µM, first compound 10 µM) of the same molecule?
**A.** 84.8%

**Q.** What about the viability, T/C (second compound 0.1 µM, first compound 0.0316 µM) of the same molecule?
**A.** 87.3%

**Q.** And the viability, T/C (second compound 0.1 µM, first compound 0.1 µM)?
**A.** 75.7%

**Q.** What about the viability, T/C (second compound 0.1 µM, first compound 0.316 µM) of the same molecule?
**A.** 80.8%

**Q.** What about the viability, T/C (second compound 0.1 µM, first compound 1 µM) of the same molecule?
**A.** 86.5%

**Q.** What about the viability, T/C (second compound 0.1 µM, first compound 3.16 µM) of the same molecule?
**A.** 99.1%

**Q.** What about the viability, T/C (second compound 0.1 µM, first compound 10 µM) of the same molecule?
**A.** 82.1%

**Q.** And the viability, T/C (second compound 0.316 µM, first compound 0.0316 µM)?
**A.** 68%

**Q.** What about the viability, T/C (second compound 0.316 µM, first compound 0.1 µM) of the same molecule?
**A.** 72%

**Q.** And the viability, T/C (second compound 0.316 µM, first compound 0.316 µM)?
**A.** 82%

**Q.** And the viability, T/C (second compound 0.316 µM, first compound 1 µM)?
**A.** 83.5%

**Q.** And the viability, T/C (second compound 0.316 µM, first compound 3.16 µM)?
**A.** 74.1%

**Q.** What about the viability, T/C (second compound 0.316 µM, first compound 10 µM) of the same molecule?
**A.** 66%

**Q.** What about the viability, T/C (second compound 1 µM, first compound 0.0316 µM) of the same molecule?
**A.** 63%

**Q.** And the viability, T/C (second compound 1 µM, first compound 0.1 µM)?
**A.** 61.8%

**Q.** And the viability, T/C (second compound 1 µM, first compound 0.316 µM)?
**A.** 51.7%

**Q.** And the viability, T/C (second compound 1 µM, first compound 1 µM)?
**A.** 68.3%

**Q.** What about the viability, T/C (second compound 1 µM, first compound 3.16 µM) of the same molecule?
**A.** 60.8%

**Q.** What about the viability, T/C (second compound 1 µM, first compound 10 µM) of the same molecule?
**A.** 54.5%

**Q.** And the viability, T/C (second compound 3.16 µM, first compound 0.0316 µM)?
**A.** 45.1%

**Q.** And the viability, T/C (second compound 3.16 µM, first compound 0.1 µM)?
**A.** 55.9%

**Q.** What about the viability, T/C (second compound 3.16 µM, first compound 0.316 µM) of the same molecule?
**A.** 49.5%

**Q.** And the viability, T/C (second compound 3.16 µM, first compound 1 µM)?
**A.** 49.2%

**Q.** And the viability, T/C (second compound 3.16 µM, first compound 3.16 µM)?
**A.** 54.3%

**Q.** And the viability, T/C (second compound 3.16 µM, first compound 10 µM)?
**A.** 46.1%

**Q.** And the viability, T/C (second compound 10 µM, first compound 0.0316 µM)?
**A.** 27.4%

**Q.** What about the viability, T/C (second compound 10 µM, first compound 0.1 µM) of the same molecule?
**A.** 36.2%

**Q.** What about the viability, T/C (second compound 10 µM, first compound 0.316 µM) of the same molecule?
**A.** 33.9%

**Q.** What about the viability, T/C (second compound 10 µM, first compound 1 µM) of the same molecule?
**A.** 35.4%

**Q.** And the viability, T/C (second compound 10 µM, first compound 3.16 µM)?
**A.** 40.3%

**Q.** What about the viability, T/C (second compound 10 µM, first compound 10 µM) of the same molecule?
**A.** 35.8%

**Q.** What does the source list for `Cn1cnc2c(F)c(Nc3ccc(Br)cc3Cl)c(C(=O)NOCCO)cc21` + Cc1nc(NC(=O)N2CCCC2C(N)=O)sc1-c1ccnc(C(C)(C)C(F)(F)F)c1?
**A.** IC50 (second compound 0.0316 µM): > 3000 nM; IC50 (second compound 0.1 µM): 2410 nM; IC50 (second compound 0.316 µM): 1460 nM; IC50 (second compound 1 µM): 554 nM; IC50 (second compound 3.16 µM): < 9.49 nM; IC50 (second compound 10 µM): < 9.49 nM; viability, T/C (second compound 0.0316 µM, first compound 0.00949 µM): 93%; viability, T/C (second compound 0.0316 µM, first compound 0.03 µM): 67.1%; viability, T/C (second compound 0.0316 µM, first compound 0.0949 µM): 83%; viability, T/C (second compound 0.0316 µM, first compound 0.3 µM): 82.7%; viability, T/C (second compound 0.0316 µM, first compound 0.949 µM): 61.2%; viability, T/C (second compound 0.0316 µM, first compound 3 µM): 58.4%; viability, T/C (second compound 0.1 µM, first compound 0.00949 µM): 79.9%; viability, T/C (second compound 0.1 µM, first compound 0.03 µM): 74.5%; viability, T/C (second compound 0.1 µM, first compound 0.0949 µM): 73.3%; viability, T/C (second compound 0.1 µM, first compound 0.3 µM): 85.1%; viability, T/C (second compound 0.1 µM, first compound 0.949 µM): 67.9%; viability, T/C (second compound 0.1 µM, first compound 3 µM): 45.4%; viability, T/C (second compound 0.316 µM, first compound 0.00949 µM): 66.9%; viability, T/C (second compound 0.316 µM, first compound 0.03 µM): 68.1%; viability, T/C (second compound 0.316 µM, first compound 0.0949 µM): 65.2%; viability, T/C (second compound 0.316 µM, first compound 0.3 µM): 68.3%; viability, T/C (second compound 0.316 µM, first compound 0.949 µM): 55.7%; viability, T/C (second compound 0.316 µM, first compound 3 µM): 37.5%; viability, T/C (second compound 1 µM, first compound 0.00949 µM): 61.7%; viability, T/C (second compound 1 µM, first compound 0.03 µM): 50.1%; viability, T/C (second compound 1 µM, first compound 0.0949 µM): 51%; viability, T/C (second compound 1 µM, first compound 0.3 µM): 47.6%; viability, T/C (second compound 1 µM, first compound 0.949 µM): 50.1%; viability, T/C (second compound 1 µM, first compound 3 µM): 28.9%; viability, T/C (second compound 3.16 µM, first compound 0.00949 µM): 45.8%; viability, T/C (second compound 3.16 µM, first compound 0.03 µM): 45.6%; viability, T/C (second compound 3.16 µM, first compound 0.0949 µM): 32.2%; viability, T/C (second compound 3.16 µM, first compound 0.3 µM): 35.8%; viability, T/C (second compound 3.16 µM, first compound 0.949 µM): 25.8%; viability, T/C (second compound 3.16 µM, first compound 3 µM): 13.8%; viability, T/C (second compound 10 µM, first compound 0.00949 µM): 26.7%; viability, T/C (second compound 10 µM, first compound 0.03 µM): 29.4%; viability, T/C (second compound 10 µM, first compound 0.0949 µM): 25.8%; viability, T/C (second compound 10 µM, first compound 0.3 µM): 19.4%; viability, T/C (second compound 10 µM, first compound 0.949 µM): 14.2%; viability, T/C (second compound 10 µM, first compound 3 µM): 5.98%
